Columns and labels:
sugar beet = experiment: Test B pre/postemergence sugar beet; format: in vivo, Beta vulgaris
Procedure, shortened: (§1)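 Response is a visual 0-to-10 score relative to untreated plants, where 0 means no effect and 10 means complete control, taken twelve to sixteen days after application. Treatments went onto soil at planting and onto foliage of 1- to 4-leaf plants, using a surfactant-containing non-phytotoxic solvent.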

winter barley = experiment: Test E winter barley; format: in vivo, Hordeum vulgare; details: Preemergence
blackgrass = experiment: Test E blackgrass; format: in vivo, Alopecurus myosuroides; details: Preemergence
wild oat = experiment: Test E wild oat; format: in vivo, Avena fatua; details: Preemergence
bamyardgrass = experiment: Test B flood test barnyardgrass; format: in vivo, Echinochloa crus-galli
Procedure, shortened: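 Flood test on plants grown to the 2-leaf stage; treated plants kept in greenhouse twelve to sixteen days, then visually rated against controls on a 0 (no effect) to 10 (complete control) scale.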

winter wheat [1] = experiment: Test E winter wheat; format: in vivo, Triticum aestivum; details: Postemergence; for Plant response rating, Wheat (winter): 0 to 100 scale
Procedure, shortened: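 Compounds formulated in non-phytotoxic solvent mixture with surfactant; for postemergence, sprayed on plants at 1- to 4-leaf stage grown in 60:40 sandy loam/greenhouse potting mix. Kept in greenhouse ~21 to 28 days, then visually rated against untreated controls.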

winter wheat [2] = experiment: Test E winter wheat; format: in vivo, Triticum aestivum; details: Preemergence
green foxtail = experiment: Test E green foxtail; format: in vivo, Setaria viridis; details: Preemergence
cocklebur = experiment: Test B pre/postemergence cocklebur; format: in vivo, Xanthium strumarium
Procedure, shortened: as §1

rape = experiment: Test B pre/postemergence rape; format: in vivo, Brassica napus
Procedure, shortened: as §1

Italian ryegrass = experiment: Test E Italian ryegrass; format: in vivo, Lolium multiflorum; details: Preemergence
[3] = Preemergence, Rate 31 g/ha, visual rating, scale 0 to 10 (0 no effect, 10 complete control)
[4] = Preemergence, Rate 62 g/ha, scale of 0 to 10 where 0 is no effect and 10 is complete control
[5] = Preemergence, Rate 250 g/ha, scale of 0 to 10 where 0 is no effect and 10 is complete control
[6] = Preemergence, Rate 500 g/ha, scale of 0 to 10 where 0 is no effect and 10 is complete control
[7] = Rate 62 g/ha, Postemergence, scale of 0 to 10 where 0 is no effect and 10 is complete control
[8] = Rate 125 g/ha, Postemergence, scale 0 to 10
[9] = Rate 125 g/ha, Preemergence, scale of 0 to 10 where 0 is no effect and 10 is complete control
[10] = Rate 500 g/ha, Postemergence, scale 0 to 10, 0 no effect, 10 complete control
[11] = Rate 31 g/ha, 0 to 100 scale, 0 no effect, 100 complete control
[12] = Rate 62 g/ha, 0 to 100 scale, 0 no effect, 100 complete control
[13] = Rate 125 g/ha, 0 to 100 scale (0 no effect, 100 complete control)
[14] = Rate 62 g/ha, headed Pre-emergence (flood test species), scale 0 to 10 (0 no effect, 10 complete control)
[15] = Rate 125 g/ha, Pre-emergence, flood test species, scale 0 to 10 where 0 is no effect and 10 is complete control
[16] = Rate 250 g/ha, Pre-emergence, flood-test species, scale 0 to 10, 0 is no effect, 10 is complete control
[17] = Rate 31 g/ha, Postemergence, scale 0 to 10
[18] = Preemergence, Rate 125 g/ha, 0 is no effect, 10 is complete control
[19] = Preemergence, Rate 250 g/ha, scale 0 to 10, 0 is no effect, 10 is complete control
[20] = Preemergence, Rate 500 g/ha, scale 0 to 10 (0 no effect, 10 complete control)
[21] = Rate 500 g/ha, Postemergence, scale 0 to 10
[22] = Rate 500 g/ha, 0 to 100 scale where 0 is no effect and 100 is complete control

CC(C)N(C(=O)n1oc(=O)n(N(C)C)c1=O)c1ccccc1 [Compound 225]
Sugarbeets plant response rating (sugar beet; [3]): 0
Sugarbeets plant response rating (sugar beet; [4]): 0
Sugarbeets plant response rating (sugar beet; [5]): 5
Plant response rating, Sugarbeets (sugar beet; [6]): 6
Sugarbeets plant response rating (sugar beet; [7]): 0
Sugarbeets plant response rating (sugar beet; [8]): 0
Sugarbeets plant response rating (sugar beet; [9]): 2
Plant response rating (0 to 10; 0 is no effect, 10 is complete control), Sugarbeets (sugar beet; Rate 250 g/ha, Postemergence): 3
Sugarbeets plant response rating (sugar beet; [10]): 2
Plant response rating, Barley (winter) (winter barley; [11]): 0
Plant response rating, Barley (winter) (winter barley; [12]): 50
Plant response rating, Barley (winter) (winter barley; [13]): 50
Barley (winter) plant response rating (0 to 100 scale) (winter barley; Rate 250 g/ha): 60
Plant response rating, Blackgrass (blackgrass; [11]): 30
Plant response rating, Blackgrass (blackgrass; [12]): 50
Plant response rating, Blackgrass (blackgrass; [13]): 60
Blackgrass plant response rating (0 to 100 scale) (blackgrass; Rate 250 g/ha): 80
Plant response rating, Wild oat (wild oat; [11]): 30
Plant response rating, Wild oat (wild oat; [12]): 40
Plant response rating, Wild oat (wild oat; [13]): 50
Wild oat plant response rating (0 to 100 scale) (wild oat; Rate 250 g/ha): 60
Barnyardgrass plant response rating (bamyardgrass; [14]): 0
Barnyardgrass plant response rating (bamyardgrass; [15]): 0
Barnyardgrass plant response rating (bamyardgrass; [16]): 0
Barnyardgrass plant response rating (bamyardgrass; Rate 500 g/ha, Pre-emergence, flood test species, scale 0 to 10 (0 no effect, 10 complete control)): 0
Plant response rating, Wheat (winter) (winter wheat [1]; Rate 31 g/ha, 0 no effect, 100 complete control): 50
Plant response rating, Wheat (winter) (winter wheat [1]; Rate 62 g/ha): 60
Plant response rating, Wheat (winter) (winter wheat [1]; Rate 125 g/ha, 0 is no effect, 100 is complete control): 75
Wheat (winter) plant response rating (winter wheat [1]; Rate 250 g/ha, 0 to 100 scale where 0 is no effect and 100 is complete control): 70
Plant response rating, Wheat (winter) (winter wheat [2]; [11]): 10
Plant response rating, Wheat (winter) (winter wheat [2]; [12]): 30
Plant response rating, Wheat (winter) (winter wheat [2]; [13]): 65
Wheat (winter) plant response rating (0 to 100 scale) (winter wheat [2]; Rate 250 g/ha): 70
Plant response rating, Green foxtail (green foxtail; [11]): 30
Plant response rating, Green foxtail (green foxtail; [12]): 60
Plant response rating, Green foxtail (green foxtail; [13]): 50
Green foxtail plant response rating (0 to 100 scale) (green foxtail; Rate 250 g/ha): 60
Cocklebur plant response rating (cocklebur; [3]): 0
Cocklebur plant response rating (cocklebur; [4]): 0
Cocklebur plant response rating (cocklebur; [5]): 2
Plant response rating, Cocklebur (cocklebur; [6]): 2
Cocklebur plant response rating (cocklebur; [17]): 0
Cocklebur plant response rating (cocklebur; [7]): 0
Cocklebur plant response rating (cocklebur; [8]): 0
Cocklebur plant response rating (cocklebur; [9]): 2
Plant response rating (0 to 10; 0 is no effect, 10 is complete control), Cocklebur (cocklebur; Rate 250 g/ha, Postemergence): 0
Cocklebur plant response rating (cocklebur; [10]): 0
Rape plant response rating (rape; [3]): 0
Rape plant response rating (rape; [4]): 0
Rape plant response rating (rape; [5]): 0
Plant response rating, Rape (rape; [6]): 6
Rape plant response rating (rape; [17]): 0
Rape plant response rating (rape; [7]): 0
Rape plant response rating (rape; [8]): 0
Rape plant response rating (rape; [9]): 0
Plant response rating (0 to 10; 0 is no effect, 10 is complete control), Rape (rape; Rate 250 g/ha, Postemergence): 0
Rape plant response rating (rape; [10]): 2
Plant response rating, I. Ryegrass (Italian ryegrass; [11]): 20
Plant response rating, I. Ryegrass (Italian ryegrass; [12]): 30
Plant response rating, I. Ryegrass (Italian ryegrass; [13]): 50
I. Ryegrass plant response rating (0 to 100 scale) (Italian ryegrass; Rate 250 g/ha): 90

Cc1nc(C)c(Cn2c(=O)on(C(=O)N(c3ccc(F)cc3)C(C)C)c2=O)s1 [Compound 192]
Sugarbeets plant response rating (sugar beet; [4]): 0
Sugarbeets plant response rating (0 to 10 scale) (sugar beet; [18]): 0
Sugarbeets plant response rating (sugar beet; [19]): 0
Sugarbeets plant response rating (sugar beet; [20]): 8
Sugarbeets plant response rating (sugar beet; [7]): 0
Sugarbeets plant response rating (sugar beet; [8]): 0
Plant response rating (0 to 10; 0 is no effect, 10 is complete control), Sugarbeets (sugar beet; Rate 250 g/ha, Postemergence): 0
Sugarbeets plant response rating (sugar beet; [21]): 5
Plant response rating, Barley (winter) (winter barley; [13]): 20
Plant response rating, Barley (winter) (winter barley; [22]): 30
Plant response rating, Blackgrass (blackgrass; [13]): 40
Plant response rating, Blackgrass (blackgrass; [22]): 50
Plant response rating, Wild oat (wild oat; [13]): 30
Plant response rating, Wild oat (wild oat; [22]): 55
Barnyardgrass plant response rating (bamyardgrass; [14]): 0
Barnyardgrass plant response rating (bamyardgrass; [15]): 0
Barnyardgrass plant response rating (bamyardgrass; [16]): 0
Plant response rating, Barnyardgrass (bamyardgrass; Rate 500 g/ha, headed Pre-emergence (flood test species), scale 0 to 10 (0 no effect, 10 complete control)): 0
Plant response rating, Wheat (winter) (winter wheat [1]; Rate 125 g/ha): 30
Plant response rating, Wheat (winter) (winter wheat [1]; Rate 500 g/ha, 0 is no effect, 100 is complete control): 50
Plant response rating, Wheat (winter) (winter wheat [2]; [13]): 10
Plant response rating, Wheat (winter) (winter wheat [2]; [22]): 40
Plant response rating, Green foxtail (green foxtail; [13]): 50
Plant response rating, Green foxtail (green foxtail; [22]): 65
Cocklebur plant response rating (cocklebur; [4]): 0
Cocklebur plant response rating (0 to 10 scale) (cocklebur; [18]): 0
Cocklebur plant response rating (cocklebur; [19]): 0
Cocklebur plant response rating (cocklebur; [20]): 0
Cocklebur plant response rating (cocklebur; [7]): 0
Cocklebur plant response rating (cocklebur; [8]): 1
Plant response rating (0 to 10; 0 is no effect, 10 is complete control), Cocklebur (cocklebur; Rate 250 g/ha, Postemergence): 2
Cocklebur plant response rating (cocklebur; [21]): 5
Rape plant response rating (rape; [4]): 0
Rape plant response rating (0 to 10 scale) (rape; [18]): 0
Rape plant response rating (rape; [19]): 4
Rape plant response rating (rape; [20]): 9
Rape plant response rating (rape; [7]): 0
Rape plant response rating (rape; [8]): 0
Plant response rating (0 to 10; 0 is no effect, 10 is complete control), Rape (rape; Rate 250 g/ha, Postemergence): 2
Rape plant response rating (rape; [21]): 2
Plant response rating, I. Ryegrass (Italian ryegrass; [13]): 20
Plant response rating, I. Ryegrass (Italian ryegrass; [22]): 60
